Source: article PMC8131842, “Therapeutic Potential of Vasoactive Intestinal Peptide and its Derivative Stearyl-Norleucine-VIP in Inflammation-Induced Osteolysis” (Frontiers in Pharmacology, 2021)

Columns and labels:
[1] = intravenously administered, 30 min after injection; ref Gozes et al., 1994; cited from earlier work
Source text: VIP and its derivative SNV have been previously studied for immunomodulation properties ([Abad et al., 2006]; [Goursaud et al., 2015]). Here we show the effect of each peptide on the cytokine profile of macrophages in response to LPS and in the osteolytic response to Ti particles using in vitro and in vivo mouse models. […] Furthermore, loading a single dose of SNV into a degradable memb ...

[2] = tested on: LPS-stimulated primary murine macrophages (IL1β, IL6 and TNFα expression); experiment: Pro-inflammatory cytokine mRNA expression (RT-qPCR) in LPS-stimulated macrophage cultures; assay type: cell-based, mouse; details: 10^−6 M, added 1 h before LPS 1 μg/ml, 24 h, bone marrow-derived macrophages
Experimental: Cell culture. Primary bone marrow-derived macrophages (BMDMs) were isolated from the femora and tibiae of 10-week-old C57BL/6J mice (Envigo, Israel), as previously described ([Hiram-Bab et al., 2015]). Briefly, cells were cultured overnight at 37°C in a humidified atmosphere with 5% CO2 in our “standard medium” consisting of alpha-modified Eagle’s medium (αMEM, Life Science Technology, NY, United States) and 10% fetal bovine serum (FBS, Rhenium, Ltd., Modi’in, Israel). After 24 h, the non-adherent fraction was cultured in 10-cm non-culture-treated dishes containing standard medium and 100 ng/ml macrophage colony stimulating factor (M-CSF) ([Takeshita et al., 2000]). The resulting adherent BMDMs were collected after 3 days for the specific assays described below.
RNA isolation, and RT-qPCR. Following a 24 h incubation with Ti particles (or LPS/vehicle only/SNV/VIP in addition to Ti particles), macrophages were washed with sterile PBS, and RNA was extracted using Tri-RNA Reagent (Favorgen Biotech Corp, Kaohsiung, Taiwan). The 260/280 absorbance ratio was measured to verify the RNA purity and concentration. cDNA was produced using a high-capacity cDNA reverse transcription kit (Invitrogen, Grand Island, NY, United States), and real-time PCR was performed using Kapa SYBR Fast qPCR (Kapa Biosystems, Wilmington, MA, United States) on a StepOne real-time PCR machine (Applied Biosystems, Grand Island, NY, United States).
The following primers were used: F-[…] and R-[…] for mouse IL1β; F-[…] and R-[…] for mouse IL6; F-[…] and R-[…] for mouse TNFα; F-CCGTAACTGCACTGAAGA-AG and R-[…] for VPAC-1; F-CAGCAGACCAGGAAACAT-AA and R-GCCACACGCATCTATGAA for VPAC-2 and F-[…] and R-[…] for Gapdh. The reaction was subjected to 40 cycles of amplification using the following program: 95°C for 20 s, 60°C for 20 s, and 72°C for 25 s. The relative mRNA expression levels of the selected genes were normalized to the level of Gapdh.
IL1β, IL6 and TNFα are the main mediators of Ti particle-mediated inflammation and osteolysis ([Eger et al., 2017]; [Eger et al., 2018]). […]

rats [3] = experiment: Study 001–3 acute oral toxicity in rats; assay type: in vivo, rat
Experimental: (§1) Toxicology. We performed toxicology studies for SNV that consisted of acute subcutaneous, intravenous and oral toxicity in rats, acute dermal toxicity in rabbits, skin sensitization using adjuvant and patch test in guinea pigs, and single and repeated (for 13 weeks) dose toxicity studies in rats. The latter was a 90-days repeated dose toxicity study, consisting of SNV once a day at three different doses to the penis and vagina of male and female rats, respectively. The compound was tested for the treatment of erectile dysfunction. The active dose (7 µg SNV) was chosen as the lowest dose for the study. The highest dosage group in the repeated dose toxicity study received 3,500 µg ([Gozes et al., 1994]). For study 001 (parts 1 through 3), the 1× dose consisted of 0.5 mg SNV dissolved in 7.1 ml vehicle (3.55 ml 10% Sefsol [glycerin monocaprylate] + 3.55 ml isopropanol) and 100µl/animal were administered; the 1000X dose consisted of 91 mg SNV dissolved in 1.3 ml vehicle (0.65 ml 10% Sefsol +0.65 ml isopropanol) and 100µl/animal were administered. For studies 002 through 004, the indicated doses of SNV (Table 1) were dissolved in 0.25 ml 10% Sefsol +0.25 ml 40% isopropanol (vehicle). The methodology for each of the toxicology studies is detailed in Table 1.

Guinea pigs = experiment: Study 003 skin sensitization: adjuvant and patch test; assay type: in vivo, guinea pig; details: SNV 7 mg/animal (1000X)
Experimental: as §1

rats [4] = experiment: Study 004–1 repeated dose toxicity in rats: a 13-weeks study; assay type: in vivo, rat
Experimental: as §1
The study named 004-1, was the most protracted and detailed toxicology study. We carried it out in rats as a repeated dose toxicity study on target external organs, the penis and the vagina. The structure of the study included a detailed pathological evaluation of all body organs.

rats [5] = experiment: Study 001–2 acute intravenous toxicity in rats; assay type: in vivo, rat; details: for Necrotic reaction at the site of injection: vehicle group 2: 55%
Experimental: as §1

albino female rabbits = experiment: Study 002 acute dermal toxicity in rabbits; assay type: in vivo, rabbit; details: single dermal application, 7 mg/site (1000X)
Experimental: as §1

[6] = oral, 7 µg/rat and 7 mg/rat groups
[7] = daily topical for 13 weeks, all doses

Substance: Stearyl–HSDAVFTDNYTRLRKQ-Nle-AVKKYLNSILN-NH2 [SNV, Stearyl-norleucine-VIP, lipophilic VIP derivative with N-terminal stearic acid and norleucine in place of methionine at position 17]
- Remaining intact SNV [1]: 10%
- Effect on TNFα expression vs LPS ([2]; n=5): no effect
- Reduction of IL1β expression levels vs LPS ([2]; n=5, p < 0.05): 35%
- Change of IL6 expression vs LPS ([2]; n=5, plus = increase): no effect
- Acute median oral lethal dose (rats [3]; oral by metal catheter, S.D. rats, 6 males + 6 females per group, 7 mg/rat = maximal practical dose): Under the conditions of this study, the acute median oral lethal dose of SNV was found to be greater the 7 mg/rat, which is the maximal practical dose
- Mortality (rats [3]; [6]): None
- Reactions (rats [3]; [6]): None
- Skin sensitization, conclusion (Guinea pigs; adjuvant and patch test): The study was designed to assess the degree of skin sensitization resulting from intradermal Freund’s complete adjuvant and patch application of SNV. The study showed that both SNV and vehicle alone have no skin sensitization properties
- Mortality (Guinea pigs; adjuvant and patch test, daily applications for 3 days): None
- Skin reactions (Guinea pigs; intradermal Freund's complete adjuvant and patch application, daily applications for 3 days, 3 males + 3 females per group): only slight erythema and edema within the application site
- Clinical signs (penile edema, erythema and staining): relation to dose (rats [4]; daily topical for 13 weeks, 7 µg, 0.7 mg and 3.5 mg/rat): not dose-related
- Mortality (rats [4]; daily topical for 13 weeks, 7 µg/rat (low dose)): None. Only one death took place in a male from the low dose group due to massive abdominal hemorrhage caused by a nephroblastoma
- Mortality (rats [4]; daily topical for 13 weeks, 0.7 mg/rat): None. Only one death took place in a male from the low dose group due to massive abdominal hemorrhage caused by a nephroblastoma
- Mortality (rats [4]; daily topical for 13 weeks, 3.5 mg/rat): None. Only one death took place in a male from the low dose group due to massive abdominal hemorrhage caused by a nephroblastoma
- Pathological evaluation of all body organs (macroscopic and microscopic changes) (rats [4]; daily topical for 13 weeks, all dosages): No drug-related macroscopic or microscopic changes
- Hematology and clinical chemistry parameters (rats [4]; [7]): No dose related or sex related biologically meaningful treatment effects
- Serious adverse effects, conclusion (rats [4]; [7]): did not cause any serious adverse effects at any of the doses tested
- Treatment-related adverse effects (rats [4]; daily topical on the sex organs for 13 weeks, 7 µg, 0.7 mg and 3.5 mg/rat, SPF S.D. rats, 10 males + 10 females per group): No related adverse effects were detected throughout the study
- Mortality (rats [5]; intravenous, 7 µg/rat (1×, group 3)): 7 rats (3 males and 4 females) out of 12 died within 3 h after administration in group 4 (SNV -1000X). One rat died in group 2 within 5–24 h after administration. No mortality occurred in groups 1 and 3
- Necrotic reaction at the site of injection (rats [5]; intravenous, 7 µg/rat (group 3)): 58%
- Necrotic reaction at the site of injection (rats [5]; intravenous, 7 mg/rat (group 4)): 100%
- Reactions: body weight (rats [5]; intravenous, all groups, initial weight loss recovered during the study): Necrotic reaction was observed at the site of injection in 55% group 2, 58% group 3 and 100% group 4. Most surviving rats displayed normal body weight, and some weight loss observed initially was recovered during the study
- Acute intravenous median lethal dose, male rats (rats [5]; tail vein, S.D. rats, estimated): 7 mg/male rat
- Dermal irritation, conclusion (albino female rabbits): Under the conditions of this study, single dermal application of the vehicle did not cause irritation. The 1000X dose transient effect was barely perceptible
- Mortality (albino female rabbits; N = 4): None
- Rabbits with slight barely perceptible erythema (albino female rabbits; N = 4, disappeared within 72 h following application): 50%
